The values below are quoted from earlier work in patent US11007171B2, “Treatment and prevention of joint disorders” (Summit Innovation Labs, LLC, priority 2017, dated 2021).

Series [1] concerns P38 MAPK. Also noted: key: ↓: Downregulate Inducers of arthritis.
In series [2] the test system is NF-κB. Also noted: key: ↓: Downregulate Inducers of arthritis.
Series [3] relates to chondrocytes.
Series [4] concerns 23 fungi strains including Candida species. The conditions noted are these: fairly low concentration.
Series [5] concerns Candida species.
Series [6] deals with VEGF. Set-up: key: ↓: Downregulate Inducers of arthritis.
Series [7] concerns Runx2. Set-up: key: ↓: Downregulate Inducers of arthritis.
Series [8] relates to Human Chondrocytes Treated with Hydrogen Peroxide or Growth-Related Oncogene a.
In series [9] the test system is Collagen induced rheumatoid arthritis. The conditions noted are these: quercetin supplementation.
The test system of series [10] is rat adjuvant arthritis.
The conditions of series [11]: doses of a few grams a day in either humans or animals.
Series [12] concerns mice.
In series [13] the test system is AP1. Also noted: key: ↓: Downregulate Inducers of arthritis.
In series [14] the test system is Bax. Set-up: key: ↓: Downregulate Inducers of arthritis.
In series [15] the target is mTOR (Homo sapiens, UniProt P42345). Also noted: key: ↓: Downregulate Inducers of arthritis.
The test system of series [16] is HIF-2α. Also noted: key: ↓: Downregulate Inducers of arthritis.
For series [17], the system named is FGF. Also noted: key: ↓: Downregulate Inducers of arthritis.
Series [18] deals with mice fed high fat diet. The conditions noted are these: oral.
Series [19] relates to advanced glycation end products stimulated chondrocytes.
The subject of series [20] is Human Articular Cartilage and Chondrosarcoma Cells.
For series [21], the system named is osteoarthritis chondrocytes.
For series [22], the system named is OA cartilage of animal model and IL-1β treated human chondrocytes. The conditions noted are these: resveratrol injection.
The subject of series [23] is C57BL/6 mice. To be noted: local intra-articular injection.
Series [24] concerns RA. The conditions noted are these: by suppressing IL-1β, TNF-α, NF-κB, COX2 and PGE2, MMPs, and arthritis index through induction of SIRT1.
Series [25] deals with acute antigen-induced arthritis model.
Series [26] deals with rheumatoid arthritis synovial fibroblast (RASF).
Series [27] deals with pigs with the equivalent of human metabolic syndrome.
The test system of series [28] is male C57BL/6J mice. To be noted: 0.4% (w/w), 4-8 week-old male C57BL/6J mice.
Series [29] deals with rats fed a high cholesterol diet.
For series [30], the system named is Porphyromonas gingivalis, Prevotella gingivalis, and Actinobacillus actinomycetemcomitans. To be noted: periodontopathic microorganisms.
The conditions of series [31]: compared with vitamin E.
In series [32] the test system is high fat diet-induced obese mice. The conditions noted are these: compared with controls.
Series [33] deals with human gingival cells.
The conditions of series [34]: in vivo.
In series [35] the test system is type 2 diabetic rats.
The test system of series [36] is OA animal model.
The test system of series [37] is cartilage. The conditions noted are these: by inhibiting iNOS expression.
For series [38], the system named is NMDAR. Also noted: key: ↓: Downregulate Inducers of arthritis.
For series [39], the system named is experimental osteoarthritis. The conditions noted are these: intraarticular magnesium sulfate (MgSO4).
For series [40], the system named is OA chondrocytes.
In series [41] the test system is rabbit articular chondrocytes. The conditions noted are these: rabbit articular chondrocytes in vitro.
Series [42] relates to RASF.
The subject of series [43] is human bone marrow-derived mesenchymal stem cells (hBMSCs). The conditions noted are these: especially at a concentration of 5 μM.
For series [44] the following is noted: after 4 weeks, 500 mg/day.

For the molecule `COc1cc(/C=C/C(=O)CC(=O)/C=C/c2ccc(O)c(OC)c2)ccc1O` [Curcumin, (1E,6E)-1,7-Bis(4-hydroxy-3-methoxyphenyl)-1,6-heptadiene-3,5-dione], the “Downregulate P38 MAPK” value in series [1] is on record as “↓”. Besides, the “Downregulate NF-κB” value in [2] is “↓”. In series [3], the “IL-1β induced chondrocytes apoptosis” value is recorded as “Inhibited IL-1β induced chondrocytes apoptosis, by suppressing caspase-3”. Further, the antifungal activity entry in [4] was “potent antifungal activity”. Further, the “adhesion of Candida species to human buccal epithelial cells” value in series [5] was “inhibitory effect”.

As for `OCCc1ccc(O)c(O)c1` [Hydroxytyrosol, 4-(2-Hydroxyethyl)-1,2-benzenediol], the “Downregulate VEGF” value in series [6] is on record as “↓”. Besides, the “Downregulate Runx2” value in series [7] is reported as “↓”. Also, the “level of SIRT1 mRNA” value in [8] (in the presence of GROα) is given as “HT treatment significantly increased the level of SIRT1 mRNA in the presence of”. Moreover, in series [8] (pretreatment of chondrocytes, oxidative stress or GROα), the “chondrocytes apoptosis, DNA damage” value is given as “Pretreatment of chondrocytes with HT (a) prevented chondrocytes apoptosis, DNA”.

`O=c1c(O)c(-c2ccc(O)c(O)c2)oc2cc(O)cc(O)c12` [Quercetin, 3,5,7,3′,4′-pentahydroxyflavone]: the “Downregulate NF-κB” value in series [2] is “↓”. Besides, the “progression of RA (arthritis score and paw swelling), elastase activity, oxidative stress and NO expression” value in [9] was “Quercetin supplementation (a) reduced progression of RA as indicated by a reduction”. Besides, in [10], the “NF-κB activity, IL-1β, CRP, monocyte chemotactic protein-1” value was “Quercetin supplementation significantly reduced NF-κB activity, IL-1β, CRP,”; the plasma antioxidant activity result was “monocyte chemotactic protein-1, and increased plasma antioxidant activity [Gardi C,”. The side effects entry in series [11] was “no side effects”. Moreover, in [12] (7 days, 12.5 or 25 mg/kg b.w., muscle and brain, mice), the “expression of genes associated with mitochondrial biogenesis (PGC-1a and SIRT1), mitochondrial DNA content, and cytochrome-C concentration” value is listed as “increases”. Further, the “maximal endurance capacity (time to fatigue) and voluntary wheel-running activity” value in series [12] (treadmill running test, compared with placebo-treated mice) was “significantly increased”.

For the molecule `Oc1ccc(/C=C/c2cc(O)cc(O)c2)cc1` [Resveratrol, 3,5,4′-trihydroxy-trans-stilbene], the “Downregulate AP1” value in [13] is “↓”. Also, the “Downregulate Bax” value in series [14] is on record as “↓”. Further, the “Downregulate mTOR” value in [15] is given as “↓”. Further, the “Downregulate HIF-2α” value in [16] is on record as “↓”. Moreover, in [17], the “Downregulate FGF” value was “↓”. For the same molecule, the “Downregulate NF-κB” value in [2] is given as “↓”. In addition, in series [18], the OA severity entry is “Significantly reduced”; the chondrocyte apoptosis entry is listed as “inhibited”; the “collagen type II expression” value was “increased”; the “type II collagen and proteoglycan degradation” value is recorded as “prevented”. In [19], the “AGEs induced degradation of collagen type II” value is “production of NO and PGE2, prevented AGEs induced degradation of collagen type”; the “AGEs induced expression and activity of MMP-13” value was “II, and decreased AGEs induced expression and activity of MMP-13 by down”. Also, the “FGF and IL-1β induced chondrocytes apoptosis, expression of cartilage degrading proteases (MMPs and aggrecanases) and decrease in proteoglycan biosynthesis” value in [20] is “Significantly reduced fibroblast growth factor (FGF) and IL-1β induced chondrocytes”. In series [21], the chondrocyte apoptosis result is recorded as “Reduced chondrocyte apoptosis mediated by (a) an inhibition of proapoptotic protein”. For the same molecule, in series [22], the “expression of collagen type II” value is on record as “maintained”; the “expression of iNOS and MMP-13” value was “reduced”. Further, in series [23], the AC degradation entry is listed as “delayed”, the OA symptoms entry is given as “reduced” and the matrix synthesis entry is “increased”. Also, the “RA development and progression” value in [24] was “Resveratrol inhibited RA development and progression by suppressing inflammation”. For the same molecule, the “knee swelling, histological score of synovial tissue, proliferating cell nuclear antigen (anti-PCNA), and proteins expressed by circulating microphages (CD 68, CD3)” value in [25] is “Resveratrol significantly reduced knee swelling, histological score of synovial tissue,”. Further, the “apoptosis of rheumatoid arthritis synovial fibroblast (RASF)” value in series [26] is given as “Resveratrol induced apoptosis of rheumatoid arthritis synovial fibroblast (RASF)”. Also, in [27], the “body mass indices, serum cholesterol and C-reactive protein” value is given as “lowered”; the “glucose tolerance and endothelial function” value is “improved”. For the same molecule, in [28], the aerobic capacity result is “significantly increased”.

As for `COc1ccc([C@@H]2CC(=O)c3c(O)cc(O[C@@H]4O[C@H](CO[C@@H]5O[C@@H](C)[C@H](O)[C@@H](O)[C@H]5O)[C@@H](O)[C@H](O)[C@H]4O)cc3O2)cc1O` [hesperidin, hesperitin-7-O-rutinoside], in series [29], the “inhibition of liver cholesterol biosynthesis” value is listed as 28.3% and the “inhibition of the esterification of hepatic cholesterol” value is 23.7%.

Consider `C=CCc1ccc(O)c(-c2ccc(O)c(CC=C)c2)c1` [honokiol], for which the antimicrobial activity entry in series [30] was “significant antimicrobial activity”. Further, the “antioxidant activity, potency relative to vitamin E” value in series [31] is recorded as 1000 times. In addition, in [32], the glucose tolerance entry is given as “improved”; the “plasma total cholesterol and glucose levels” value is “significantly reduced”. Further, the “cytotoxic effect on human gingival cells” value in series [33] is “relatively low cytotoxic effect”.

On to `C=CCc1ccc(O)c(-c2cc(CC=C)ccc2O)c1` [magnolol, 4-Allyl-2-(5-allyl-2-hydroxy-phenyl)phenol], for which, in series [30], the antimicrobial activity result was “significant antimicrobial activity”. The oral bioavailability in [34] is given as 4-5%. In [31], the “antioxidant activity, potency relative to vitamin E” value was 1000 times. In series [35], the “fasting blood glucose and plasma insulin levels” value is “reduced”. Further, in series [32], the glucose tolerance result is on record as “improved”; the “plasma total cholesterol and glucose levels” value is on record as “significantly reduced”. In addition, in series [33], the “cytotoxic effect on human gingival cells” value is “relatively low cytotoxic effect”.

Turning to `Oc1cc(O)c2c(c1)O[C@H](c1ccc(O)c(O)c1)[C@@H](O)[C@@H]2c1c(O)cc(O)c2c1O[C@H](c1ccc(O)c(O)c1)[C@@H](O)C2` [procyanidin B3], in [36], the OA progression result is “Pcy and components of Pcy (procyanidin B2 and B3) slowed OA progression,”. In series [37], the “cartilage degradation and heterotopic ossification” value was “Pcy B3 prevents cartilage degradation and heterotopic ossification (bone formation in”.

With “(−)-epicatechin-(4β→8)-(−)-epicatechin [procyanidin B2]”, the OA progression result in series [36] is “Pcy and components of Pcy (procyanidin B2 and B3) slowed OA progression,”.

Turning to Magnesium, the “Downregulate NMDAR” value in series [38] is listed as “↓”. In addition, the “Downregulate NF-κB” value in [2] is recorded as “↓”. The “cartilage degradation and chondrocyte apoptosis” value in [39] is “Reduced cartilage degradation and chondrocyte apoptosis deposition by blocking”.

Consider epigallocatechin-3-gallate [EGCG], for which the “Downregulate P38 MAPK” value in series [1] is reported as “↓”. In addition, the “Downregulate AP1” value in [13] is “↓”. The “Downregulate NF-κB” value in [2] was “↓”. Besides, the “AGEs induced expression of TNF-α and MMP-13” value in series [40] was “Significantly decreased AGEs induced expression of TNF-α and MMP-13 in OA”. In series [41], the “chondrocyte proliferation, production of collagen type II and aggrecan” value was “Enhanced chondrocyte proliferation, production of collagen type II and aggrecan”. In addition, the “IL-1β-induced IL-6 and IL-8 synthesis” value in series [42] was “Inhibited IL-1β-induced IL-6 and IL-8 synthesis in RASF via suppressing”. Moreover, in [43], the “osteogenic effect on hBMSCs” value is on record as “strong stimulatory effect”.

Take glucosyl-hesperidin [G-Hesperidin]: the triglyceride level entry in series [44] is recorded as “marked decrease”.
